Laboratory results: patent US9814801B2, “Thiol-ene polymerization with vinylesters and vinylcarbonate” (Depuy Synthes Products, Inc., priority 2011, dated 2017)

What was measured:
[1] = Photoreactivity by photo-DSC: time to reach the maximum of the polymerization heat; type: physicochemical
Procedure: The compositions which are embodiments of the present invention were compared to acrylate and methacrylate based polymer systems as comparative examples.
The reactivity towards photopolymerization was tested with the help of photo-DSC (differential scanning calorimetry). The measurements were carried out using 2 wt % of 2-hydroxy-1-[4-(2-hydroxyethoxy)phenyl]-2-methyl-1-propanone (Irgacure 2959, Ciba SC) as photoinitiator.

[2] = system: osteoblastic MC3T3-E1 cells; test: in vitro; settings: read-out: LC50; MC3T3-E1 cells cultured five days with monomer; n=3
Procedure: (§1) The effects of each of vinyl ester 4V, acrylate 4A, and meth-acrylate 4M on osteoblastic MC3T3-E1 cells in vitro was tested by the MTT assay method. The osteoblastic MC3T3-E1 cells were cultured for five days in the presence of each of vinyl ester (4V), acrylate (4A), and meth-acrylate (4M).
(§2) Cytotoxicity of the newly synthesized monomers and the reference substances together with the thiols and photoinitiator used was examined in osteoblast cell culture by using an Alamar Blue Assay. This assay incorporates a fluorometric/colormetric growth indicator based on the detection of metabolic activity. 1M solutions of the monomers, thiols, and photoinitiator in DMSO (HYBRI-MAX®, Sigma) were prepared. […] For experiments, cells [osteoblasts taken of the strain C57BL/6 of mus musculus (ATCC Catalog No. CRL-2593, MC3T3-E1, Subclone 4)] were cultured in 100 μl DMEM Medium supplemented with 10% FCS, 100 U/ml Penicillin, and 100 μg/ml Streptomycin, in 96-well plates at a density of 6.4×10^3 cells well^−1 for 24 hours in humidified air (95% relative humidity) with 5% CO2 at 37° C. The next day, the cells were treated with 100 μL of the different concentrations of the monomers for 5 days in triplicates. 10 μL of resazurin were added and the cells incubated for 4 hours at 37° C. The fluorescence intensity was measured for excitation at 530 nm and emission at 580 nm and compared to untreated cells (cells+medium). As control groups cells treated with 1% DMSO-solution, a blank value, and PBS-puffer were used.

fibroblast cell culture = test: Monomer cytotoxicity, Alamar Blue Assay in fibroblast cell culture; settings: monomer concentration at which resorufin production was reduced to 50% of control, n=3
Description: This assay incorporated a fluorometric/colormetric growth indicator based on detection of metabolic activity.

in vitro = test: in vitro
Procedure: as §1, §2

[3] = PEG600 monomer series, 0% TMP700
[4] = PEG600 monomer series, 10% TMP700
[5] = PEG600 monomer series, 20% TMP700
[6] = PEG600 monomer series, 40% TMP700
[7] = Butanediol monomer series, 0% TMP700
[8] = Butanediol monomer series, 0% TT
[9] = Butanediol monomer series, 10% TMP700
[10] = Butanediol monomer series, 10% TT
[11] = Butanediol monomer series, 20% TMP700
[12] = Butanediol monomer series, 20% TT
[13] = Butanediol monomer series, 40% TMP700
[14] = Butanediol monomer series, 40% TT
[15] = PEG200 monomer series, 0% TMP700
[16] = PEG200 monomer series, 10% TMP700
[17] = PEG200 monomer series, 20% TMP700
[18] = PEG200 monomer series, 40% TMP700

Compound | time to reach the maximum of the polymerization heat [1, 7] [s] | time to reach the maximum of the polymerization heat [1, 8] [s] | time to reach the maximum of the polymerization heat [1, 9] [s] | time to reach the maximum of the polymerization heat [1, 10] [s] | time to reach the maximum of the polymerization heat [1, 11] [s] | time to reach the maximum of the polymerization heat [1, 12] [s] | time to reach the maximum of the polymerization heat [1, 13] [s] | time to reach the maximum of the polymerization heat [1, 14] [s] | IC50 [mM] (TC50 values of various monomers) (fibroblast cell culture) | further results
Poly(ethylene glycol) diacrylate, MG 600 [PEG600 Acrylate] |  |  |  |  |  |  |  |  |  | time to reach the maximum of the polymerization heat [1, 3]: 3.2 s; time to reach the maximum of the polymerization heat ([1]; PEG600 monomer series, 0% TT): 3.2 s; time to reach the maximum of the polymerization heat [1, 4]: 3.8 s; time to reach the maximum of the polymerization heat ([1]; PEG600 monomer series, 10% TT): 3.2 s; time to reach the maximum of the polymerization heat [1, 5]: 3.7 s; time to reach the maximum of the polymerization heat ([1]; PEG600 monomer series, 20% TT): 3.0 s; time to reach the maximum of the polymerization heat [1, 6]: 3.2 s; time to reach the maximum of the polymerization heat ([1]; PEG600 monomer series, 40% TT): 3.0 s
C=CC(=O)OCCCCOC(=O)C=C [Butanediol Acrylate, 1,4-Butanediol-di-acrylate] | 2.7 | 2.7 | 2.9 | 2.5 | 3.5 | 2.8 | 3.5 | 2.7 |  | CC50 [2]: < 0.16 mM
C=COC(=O)COCCOCCOCC(=O)OC=C [TUVE, ω,ω′-3,6,9-trioxaundecanedioic acid divinyl ester] |  |  |  |  |  |  |  |  | 2.5 | 
C=C(C)C(=O)OCCCCOC(=O)C(=C)C [Butanediol Methacrylate, 1,4-Butanediol di-methacrylat] | 28.6 | 28.6 | 90.2 | 87.6 | 85.4 | 83.8 | 75.0 | 55.0 |  | CC50 (in vitro): 1.3 mM
C=CC(=O)OCCOCCOCCOCCOC(=O)C=C [TTEGDAc, Tetra(ethylene glycol) diacrylate] |  |  |  |  |  |  |  |  | <0.16 | time to reach the maximum of the polymerization heat [1, 15]: 2.6 s; time to reach the maximum of the polymerization heat ([1]; PEG200 monomer series, 0% TT): 2.6 s; time to reach the maximum of the polymerization heat [1, 16]: 3.6 s; time to reach the maximum of the polymerization heat ([1]; PEG200 monomer series, 10% TT): 3.5 s; time to reach the maximum of the polymerization heat [1, 17]: 3.6 s; time to reach the maximum of the polymerization heat ([1]; PEG200 monomer series, 20% TT): 3.3 s; time to reach the maximum of the polymerization heat [1, 18]: 3.4 s; time to reach the maximum of the polymerization heat ([1]; PEG200 monomer series, 40% TT): 3.3 s
O=C(CCS)OCC(COC(=O)CCS)(COC(=O)CCS)COC(=O)CCS [PTM, pentaerythritol tetra(3-mercaptopropionate)] |  |  |  |  |  |  |  |  | 10 | CC50 at 5 days (in vitro; C57BL/6, mouse, osteoblastic MC3T3-E1 cells (Subclone 4, ATCC CRL-2593)): > 10 mM
C=C(C)C(=O)OCCOCCOCCOCCOC(=O)C(=C)C [TTEGDMA, Tetra(ethylene glycol) dimethacrylate] |  |  |  |  |  |  |  |  | <0.16 | time to reach the maximum of the polymerization heat [1, 15]: 12.6 s; time to reach the maximum of the polymerization heat ([1]; PEG200 monomer series, 0% TT): 12.6 s; time to reach the maximum of the polymerization heat [1, 16]: 56.0 s; time to reach the maximum of the polymerization heat ([1]; PEG200 monomer series, 10% TT): 51.5 s; time to reach the maximum of the polymerization heat [1, 17]: 55.1 s; time to reach the maximum of the polymerization heat ([1]; PEG200 monomer series, 20% TT): 58.3 s; time to reach the maximum of the polymerization heat [1, 18]: 46.9 s; time to reach the maximum of the polymerization heat ([1]; PEG200 monomer series, 40% TT): 54.0 s
C=COC(=O)OCCCCOC(=O)OC=C [Butanediol Vinyl carbonate, 1,4-butanediol divinyl carbonate] | 3.3 | 3.3 | 6.1 | 7.1 | 4.4 | 3.0 | 2.1 | 2.4 |  | 
Poly(ethylene glycol) dimethacrylate, MG 600 [PEG600 Methacrylate] |  |  |  |  |  |  |  |  |  | time to reach the maximum of the polymerization heat [1, 3]: 10.5 s; time to reach the maximum of the polymerization heat ([1]; PEG600 monomer series, 0% TT): 10.5 s; time to reach the maximum of the polymerization heat [1, 4]: 27.0 s; time to reach the maximum of the polymerization heat ([1]; PEG600 monomer series, 10% TT): 26.3 s; time to reach the maximum of the polymerization heat [1, 5]: 31.2 s; time to reach the maximum of the polymerization heat ([1]; PEG600 monomer series, 20% TT): 31.2 s; time to reach the maximum of the polymerization heat [1, 6]: 30.6 s; time to reach the maximum of the polymerization heat ([1]; PEG600 monomer series, 40% TT): 24.9 s
C=COC(=O)CCCCC(=O)OC=C [AVE, adipic acid divinyl ester] | 4.9 | 4.9 | 8.4 | 7.7 | 2.9 | 5.8 | 2.1 | 2.1 | 10 | 
